From patent publication US8546579B2, “Bicycloheteroaryl compounds as P2X7 modulators and uses thereof” (Evotec (US) Inc., priority 2006, dated 2013) come the findings set out here.

SMILES strings stand for the structures.

The first experiment has as its target T1, P2X7 receptor (Homo sapiens, UniProt Q99572).
T1 construct: host or cells: THP-1 cells differentiated with LPS and IFN-γ
T1 sequence (Q99572 1-595): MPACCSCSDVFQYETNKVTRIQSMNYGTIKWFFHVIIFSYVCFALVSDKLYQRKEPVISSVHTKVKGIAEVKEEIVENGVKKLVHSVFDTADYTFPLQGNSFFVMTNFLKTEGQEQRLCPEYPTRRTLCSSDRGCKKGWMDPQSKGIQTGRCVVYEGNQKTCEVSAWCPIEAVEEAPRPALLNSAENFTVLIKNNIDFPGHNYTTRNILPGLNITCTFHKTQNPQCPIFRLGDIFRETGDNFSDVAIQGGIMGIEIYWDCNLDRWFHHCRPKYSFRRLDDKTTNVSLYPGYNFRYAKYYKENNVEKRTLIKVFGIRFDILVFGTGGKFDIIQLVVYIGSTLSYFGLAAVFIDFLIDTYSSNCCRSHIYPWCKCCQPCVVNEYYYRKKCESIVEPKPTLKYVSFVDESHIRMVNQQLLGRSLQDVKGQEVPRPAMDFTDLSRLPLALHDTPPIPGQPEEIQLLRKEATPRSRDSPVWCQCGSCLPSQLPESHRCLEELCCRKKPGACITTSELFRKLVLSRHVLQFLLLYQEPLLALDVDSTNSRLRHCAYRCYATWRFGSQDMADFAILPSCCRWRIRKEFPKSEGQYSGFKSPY
In words: IL-1β release assay in differentiated THP-1 cells stimulated with BzATP (Example 9). Format: cell-based. As to conditions: 0.1 μM compound; differentiated THP-1 cells, BzATP 250 uM; '*' class symbols; read-out: IL-1β % Inhib. (asterisk classes, 0.1 μM). The procedure, abridged: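 THP-1 cells differentiated 16 h with LPS and IFN-γ (100 ng/mL each), re-primed 2 h with LPS, then compound-pretreated 30 min before 250 uM BzATP for 45 min. Supernatant IL-1β quantified by ELISA; background-adjusted percent inhibition fitted to four-parameter logistic for IC50.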
`O=C(Nc1cccc2c(=O)n(CCN3CCOCC3)ccc12)c1cc(Cl)cc(Cl)c1` [Compound 1195]: the inhibition at 0.1 µM is 0 to 25%.
The same measure, in the same setting: under `COc1cc(OC)cc(C(=O)Nc2cccc3c(=O)n(CCN4CCOCC4)ccc23)c1` [Compound 1196] stands 0 to 25%; under `Cc1cccc(C(=O)Nc2cccc3c(=O)n(CCN4CCOCC4)ccc23)c1` [Compound 1197], 0 to 25%.

Still in this experiment, the particulars now being: 0.1 μM compound; differentiated THP-1 cells, BzATP 250 uM; symbols * to ****; read-out: IL-1β % Inhib. (asterisk symbols: at 0.1 μM).
As to `CCOc1ccc(C(=O)Nc2cccc3c(=O)n(CCN4CCOCC4)ccc23)cc1` [Compound 1198], the inhibition at 0.1 µM lay within 0 to 25%.
On to `CC(C)(C)c1ccc(C(=O)Nc2cccc3c(=O)n(CCN4CCOCC4)ccc23)cc1` [Compound 1199], for which the inhibition at 0.1 µM lay within 0 to 25%.
Same read-out and setting: under `COc1ccccc1CCC(=O)Nc1cccc2c(=O)n(CCN3CCOCC3)ccc12` [Compound 1201] stands 0 to 25%.

The experiment is the same for the next values; noted with them: 0.3 μM compound; differentiated THP-1 cells, BzATP 250 uM; '+' class symbols; read-out: IL-1β % Inhib. @ 0.3 μM.
For `CCOc1ccc(CC(=O)Nc2cccc3c(=O)n(CCN(C)C)ccc23)cc1` [Compound 1160], the inhibition at 0.3 µM was in the range of 0 to 25%.
On to `CN(C)CCn1ccc2c(NC(=O)CCCc3ccccc3)cccc2c1=O` [Compound 1161], for which the inhibition at 0.3 µM was 0 to 25%.
Same read-out and setting: the same measure for `CN(C)CCn1ccc2c(NC(=O)c3cc4ccccc4o3)cccc2c1=O` [Compound 1162]: 0 to 25%; for `CN(C)CCn1ccc2c(NC(=O)Cc3ccc4c(c3)OCO4)cccc2c1=O` [Compound 1163]: 0 to 25%; for `COc1cc(CC(=O)Nc2cccc3c(=O)n(CCN(C)C)ccc23)cc(OC)c1` [Compound 1164]: 0 to 25%.
Same read-out and setting: under `COc1c(C)cc(C(=O)Nc2cccc3c(=O)n(CCN(C)C)ccc23)cc1C` [Compound 1165] stands 0 to 25%; under `Cc1cc(Cl)ccc1C(=O)Nc1cccc2c(=O)n(CCN(C)C)ccc12` [Compound 1166], 0 to 25%.
Still for that read-out and setting: under `CN(C)CCn1ccc2c(NC(=O)CC3CC4CC[C@H]3C4)cccc2c1=O` (stereo partly shown) [Compound 1167] stands 26 to 50%.
For `CN(C)CCn1ccc2c(NC(=O)[C@@]34C[C@@H]5C[C@@H](C[C@@H]3C5)C4)cccc2c1=O` [Compound 1168], the inhibition at 0.3 µM was 0 to 25%.
On the same count and under the same terms, the same measure for `CN(C)CCn1ccc2c(NC(=O)c3cccc4c3OCCO4)cccc2c1=O` [Compound 1169]: 0 to 25%; for `CN(C)CCn1ccc2c(NC(=O)c3ccc4c(c3)OCCCO4)cccc2c1=O` [Compound 1170]: 0 to 25%; for `CN(C)CCn1ccc2c(NC(=O)Cc3csc4ccccc34)cccc2c1=O` [Compound 1171]: 0 to 25%.
The same measure, in the same setting: under `Cc1c(Cl)cccc1C(=O)Nc1cccc2c(=O)n(CCN(C)C)ccc12` [Compound 1172] stands 0 to 25%.
On the same count and under the same terms, under `Cc1cc(C)cc(CC(=O)Nc2cccc3c(=O)n(CCN(C)C)ccc23)c1` [Compound 1173] stands 0 to 25%.
For the compound `Cc1cc(C(=O)Nc2cccc3c(=O)n(CCN(C)C)ccc23)ccc1F` [Compound 1175], the inhibition at 0.3 µM was 0 to 25%.
The same measure, in the same setting: the same measure for `CN(C)CCn1ccc2c(NC(=O)CCc3ccc(Cl)cc3)cccc2c1=O` [Compound 1176]: 0 to 25%.
Same read-out and setting: under `CCOc1ccccc1CC(=O)Nc1cccc2c(=O)n(CCN(C)C)ccc12` [Compound 1177] stands 0 to 25%.
The same measure, in the same setting: under `COc1ccc(CC(=O)Nc2cccc3c(=O)n(CCN(C)C)ccc23)cc1C` [Compound 1178] stands 0 to 25%; under `Cc1ccc(Cl)c(C(=O)Nc2cccc3c(=O)n(CCN(C)C)ccc23)c1` [Compound 1179], 0 to 25%.
For the compound `Cc1ccc(Cl)cc1C(=O)Nc1cccc2c(=O)n(CCN(C)C)ccc12` [Compound 1180], the inhibition at 0.3 µM lay within 0 to 25%.
Still for that read-out and setting: the same measure for `Cc1cccc(CCC(=O)Nc2cccc3c(=O)n(CCN(C)C)ccc23)c1` [Compound 1181]: 0 to 25%; for `CN(C)CCn1ccc2c(NC(=O)c3cc4cc(Cl)ccc4o3)cccc2c1=O` [Compound 1182]: 0 to 25%; for `Cc1cccc(C(=O)Nc2cccc3c(=O)n(CCN(C)C)ccc23)c1Cl` [Compound 1183]: 0 to 25%.
Same read-out and setting: the same measure for `COc1ccc(C(=O)Nc2cccc3c(=O)n(CCN(C)C)ccc23)cc1C` [Compound 1184]: 0 to 25%; for `Cc1ccc(CCC(=O)Nc2cccc3c(=O)n(CCN(C)C)ccc23)c(C)c1` [Compound 1185]: 0 to 25%.
Same read-out and setting: under `CN(C)CCn1ccc2c(NC(=O)CCc3cccc(Cl)c3)cccc2c1=O` [Compound 1186] stands 51 to 75%; under `CC(C)Cc1ccc(C(=O)Nc2cccc3c(=O)n(CCN(C)C)ccc23)cc1` [Compound 1187], 0 to 25%.
In the case of `O=C(Nc1cccc2c(=O)n(CCN3CCOCC3)ccc12)c1ccccc1Cl` [Compound 1188], the inhibition at 0.3 µM lay in the range of 0 to 25%.
The same measure, in the same setting: under `O=C(Nc1cccc2c(=O)n(CCN3CCOCC3)ccc12)c1ccc(Cl)cc1Cl` [Compound 1189] stands 0 to 25%; under `O=C(Nc1cccc2c(=O)n(CCN3CCOCC3)ccc12)c1cc(Cl)ccc1Cl` [Compound 1190], 0 to 25%.
For the compound `Cc1ccccc1C(=O)Nc1cccc2c(=O)n(CCN3CCOCC3)ccc12` [Compound 1191], the inhibition at 0.3 µM was 0 to 25%.
Still for that read-out and setting: the same measure for `Cc1cccc(C(=O)Nc2cccc3c(=O)n(CCN4CCOCC4)ccc23)c1C` [Compound 1192]: 26 to 50%; for `Cc1ccc(C(=O)Nc2cccc3c(=O)n(CCN4CCOCC4)ccc23)c(C)c1` [Compound 1193]: 0 to 25%.
The same measure, in the same setting: under `Cc1ccc(C)c(C(=O)Nc2cccc3c(=O)n(CCN4CCOCC4)ccc23)c1` [Compound 1194] stands 0 to 25%.

Still in this experiment, the particulars now being: 0.3 μM compound; differentiated THP-1 cells, BzATP 250 uM; symbols + to ++++; read-out: IL-1β % Inhib. @ 0.3 μM.
On to `CC(C(=O)Nc1cccc2c(=O)n(CCN3CCOCC3)ccc12)c1ccccc1` (stereo not shown) [Compound 1200], for which the inhibition at 0.3 µM lay within 0 to 25%.
As for `COc1ccc(CCC(=O)Nc2cccc3c(=O)n(CCN4CCOCC4)ccc23)cc1` [Compound 1202], the inhibition at 0.3 µM lay within 0 to 25%.
The same measure, in the same setting: the same measure for `O=C(Cc1cccc2ccccc12)Nc1cccc2c(=O)n(CCN3CCOCC3)ccc12` [Compound 1203]: 0 to 25%; for `O=C(Cc1ccccc1F)Nc1cccc2c(=O)n(CCN3CCOCC3)ccc12` [Compound 1204]: 0 to 25%.
The same measure, in the same setting: the same measure for `O=C(Cc1ccccc1Cl)Nc1cccc2c(=O)n(CCN3CCOCC3)ccc12` [Compound 1205]: 0 to 25%; for `COc1ccccc1CC(=O)Nc1cccc2c(=O)n(CCN3CCOCC3)ccc12` [Compound 1206]: 0 to 25%.
With `COc1ccc(OC)c(CC(=O)Nc2cccc3c(=O)n(CCN4CCOCC4)ccc23)c1` [Compound 1207], the inhibition at 0.3 µM lay within 0 to 25%.
The same measure, in the same setting: under `Cc1ccccc1CC(=O)Nc1cccc2c(=O)n(CCN3CCOCC3)ccc12` [Compound 1208] stands 0 to 25%; under `COc1cccc(CC(=O)Nc2cccc3c(=O)n(CCN4CCOCC4)ccc23)c1` [Compound 1209], 0 to 25%.
Turning to `COc1ccc(CC(=O)Nc2cccc3c(=O)n(CCN4CCOCC4)ccc23)cc1OC` [Compound 1210], the inhibition at 0.3 µM is 0 to 25%.
Still for that read-out and setting: the same measure for `Cc1cccc(CC(=O)Nc2cccc3c(=O)n(CCN4CCOCC4)ccc23)c1` [Compound 1211]: 0 to 25%; for `COc1ccc(CC(=O)Nc2cccc3c(=O)n(CCN4CCOCC4)ccc23)cc1` [Compound 1212]: 0 to 25%; for `CCOc1ccc(CC(=O)Nc2cccc3c(=O)n(CCN4CCOCC4)ccc23)cc1` [Compound 1213]: 0 to 25%.
Still for that read-out and setting: under `Cc1ccc(CC(=O)Nc2cccc3c(=O)n(CCN4CCOCC4)ccc23)cc1` [Compound 1214] stands 0 to 25%; under `O=C(CCCc1ccccc1)Nc1cccc2c(=O)n(CCN3CCOCC3)ccc12` [Compound 1215], 0 to 25%.
The same measure, in the same setting: under `O=C(Nc1cccc2c(=O)n(CCN3CCOCC3)ccc12)c1cc2ccccc2o1` [Compound 1216] stands 0 to 25%.
As for `O=C(Cc1ccc2c(c1)OCO2)Nc1cccc2c(=O)n(CCN3CCOCC3)ccc12` [Compound 1217], the inhibition at 0.3 µM lay in the range of 0 to 25%.
On the same count and under the same terms, under `COc1cc(CC(=O)Nc2cccc3c(=O)n(CCN4CCOCC4)ccc23)cc(OC)c1` [Compound 1218] stands 26 to 50%; under `COc1c(C)cc(C(=O)Nc2cccc3c(=O)n(CCN4CCOCC4)ccc23)cc1C` [Compound 1219], 26 to 50%; under `Cc1ccc(C(=O)Nc2cccc3c(=O)n(CCN4CCOCC4)ccc23)cc1Cl` [Compound 1220], 0 to 25%.
Turning to `Cc1cc(Cl)ccc1C(=O)Nc1cccc2c(=O)n(CCN3CCOCC3)ccc12` [Compound 1221], the inhibition at 0.3 µM was 0 to 25%.
